Test: Effect of modulating substances on active ingredient delivery in vitro
Type: physicochemical
Conditions: for effect of modulating substance on rate of active ingredient delivery: in the multilayer pharmaceutical form; for activity of modulating substance in purified water versus phosphate buffer pH 6,8: in-vitro, purified water vs phosphate buffer pH 6,8 (Pharm. Eur.)
Text: In the human and animal gastrointestinal tract the concentration of ions may vary to a certain extent and thus may influence the activity of the modulating substances. For reproducible in-vivo results substances having a modulating effect, which are not or only a little influenced by varying ionic strength are preferred.

SMILES: CC(=O)[O-].[Na+] [Na acetate]
- effect of modulating substance on rate of active ingredient delivery: increase the rate of active ingredient delivery

SMILES: O=C(O)CC(O)(CC(=O)O)C(=O)O [citric acid]
- effect of modulating substance on rate of active ingredient delivery: increase the rate of active ingredient delivery
- activity of modulating substance in purified water versus phosphate buffer pH 6,8: almost the same activity

SMILES: O=C([O-])CCC(=O)[O-].[Na+].[Na+] [sodium succinate]
- effect of modulating substance on rate of active ingredient delivery: increase the rate of active ingredient delivery
- activity of modulating substance in purified water versus phosphate buffer pH 6,8: almost the same activity

SMILES: [Cl-].[Na+] [sodium chloride]
- effect of modulating substance on rate of active ingredient delivery: decrease the rate of active ingredient delivery
- activity of modulating substance in purified water versus phosphate buffer pH 6,8: almost the same activity

SMILES: O=C([O-])CC(O)(CC(=O)[O-])C(=O)[O-].[Na+].[Na+].[Na+] [Na citrate]
- effect of modulating substance on rate of active ingredient delivery: decrease the rate of active ingredient delivery
